From US20150105252A1, “SUBSTITUTED PYRAZOLES AS HERBICIDES” (E I DU PONT DE NEMOURS AND COMPANY, priority 2013, published 2015)

Key:
[1] = test system: corn; experiment: Test A preemergence; type: in vivo, Zea mays; details: preemergence
In short: (§1)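 Scoring was visual, on a scale where 100 means complete control and 0 means no effect, comparing treated with untreated plants around 10 days post-application. Compounds in surfactant-containing non-phytotoxic solvent were sprayed onto soil preemergence or onto one- to two-leaf seedlings (2–10 cm) postemergence.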

[2] = test system: rice; experiment: Test B flood; type: in vivo, Oryza sativa; details: 250 g ai/ha, visual rating on 0 to 100 scale (0 no effect, 100 complete control), 13 to 15 days
In short: (§2)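 Paddy-water application: seedlings at 2-leaf stage, flood depth 3 cm maintained for the test duration. Evaluation after 13–15 days in the greenhouse by eye relative to controls; 0–100 scale.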

[3] = test system: sedge, umbrella; experiment: Test B flood; type: in vivo, Cyperus difformis; details: 250 g ai/ha, visual rating on 0 to 100 scale (0 no effect, 100 complete control), 13 to 15 days
In short: as §2

[4] = test system: crabgrass, large; experiment: Test A postemergence; type: in vivo, Digitaria sanguinalis
In short: as §1

[5] = test system: ducksalad; experiment: Test B flood; type: in vivo, Heteranthera limosa; details: 250 g ai/ha, visual rating on 0 to 100 scale (0 no effect, 100 complete control), 13 to 15 days
In short: as §2

[6] = test system: velvetleaf; experiment: Test A preemergence; type: in vivo, Abutilon theophrasti; details: preemergence
In short: as §1

[7] = test system: wheat; experiment: Test A postemergence; type: in vivo, Triticum aestivum
In short: as §1

[8] = test system: morningglory; experiment: Test A postemergence; type: in vivo, Ipomoea spp.
In short: as §1

[9] = test system: foxtail, giant; experiment: Test A preemergence; type: in vivo, Setaria faberii; details: preemergence
In short: as §1

[10] = test system: barnyardgrass; experiment: Test A postemergence; type: in vivo, Echinochloa crus-galli
In short: as §1

[11] = test system: pigweed; experiment: Test A preemergence; type: in vivo, Amaranthus retroflexus; details: preemergence
In short: as §1

[12] = test system: velvetleaf; experiment: Test A postemergence; type: in vivo, Abutilon theophrasti
In short: as §1

[13] = test system: foxtail, giant; experiment: Test A postemergence; type: in vivo, Setaria faberii
In short: as §1

[14] = test system: corn; experiment: Test A postemergence; type: in vivo, Zea mays
In short: as §1

[15] = test system: pigweed; experiment: Test A postemergence; type: in vivo, Amaranthus retroflexus
In short: as §1

[16] = test system: wheat; experiment: Test A preemergence; type: in vivo, Triticum aestivum; details: preemergence
In short: as §1

[17] = test system: barnyardgrass; experiment: Test B flood; type: in vivo, Echinochloa crus-galli; details: 250 g ai/ha, visual rating on 0 to 100 scale (0 no effect, 100 complete control), 13 to 15 days
In short: as §2

[18] = test system: morningglory; experiment: Test A preemergence; type: in vivo, Ipomoea spp.; details: preemergence
In short: as §1

[19] = test system: barnyardgrass; experiment: Test A preemergence; type: in vivo, Echinochloa crus-galli; details: preemergence
In short: as §1

[20] = test system: crabgrass, large; experiment: Test A preemergence; type: in vivo, Digitaria sanguinalis; details: preemergence
In short: as §1

[21] = 125 g ai/ha, visual injury, 0 to 100 scale, approx. 10 days
[22] = 500 g ai/ha, visual injury after approx. 10 days, 0 to 100 scale (0 no effect, 100 complete control)
[23] = Postemergence, 500 g ai/ha, visual rating after approx. 10 days, 0 to 100 scale (0 no effect, 100 complete control)
[24] = postemergence, 125 g ai/ha, about 10 days, visual rating on 0 to 100 scale (0 no effect, 100 complete control)

SMILES	Corn plant response rating [1, 21]	Corn plant response rating [1, 22]	Plant response rating, Rice [2]	Plant response rating, Sedge, Umbrella [3]	Crabgrass, Large plant response rating [4, 23]	Crabgrass, Large plant response rating [4, 24]	Plant response rating, Ducksalad [5]	Velvetleaf plant response rating [6, 21]	Velvetleaf plant response rating [6, 22]	Wheat plant response rating [7, 23]	Wheat plant response rating [7, 24]	Morningglory plant response rating [8, 23]	Morningglory plant response rating [8, 24]	Foxtail, Giant plant response rating [9, 21]	Foxtail, Giant plant response rating [9, 22]	Barnyardgrass plant response rating [10, 23]	Barnyardgrass plant response rating [10, 24]	Pigweed plant response rating [11, 21]	Pigweed plant response rating [11, 22]	Velvetleaf plant response rating [12, 23]	other results
CCc1cc(-c2ccc(Br)cc2)nn1Cc1ccnc(C(F)(F)F)c1 [Compound 112]	0	0	20	0	20	10	0	0	10	40	10	70	40	70	80	20	0	0	50	40	Velvetleaf plant response rating [12, 24]: 20; Foxtail, Giant plant response rating [13, 23]: 20; Foxtail, Giant plant response rating [13, 24]: 10; Corn plant response rating [14, 23]: 30; Corn plant response rating [14, 24]: 0; Pigweed plant response rating [15, 23]: 90; Pigweed plant response rating [15, 24]: 30; Wheat plant response rating [16, 21]: 0; Wheat plant response rating [16, 22]: 0; Plant response rating, Barnyardgrass [17]: 20; Morningglory plant response rating [18, 21]: 0; Morningglory plant response rating [18, 22]: 0; Barnyardgrass plant response rating [19, 21]: 0; Barnyardgrass plant response rating [19, 22]: 10; Crabgrass, Large plant response rating [20, 21]: 70; Crabgrass, Large plant response rating [20, 22]: 90
CCc1cc(-c2ccc(C(F)(F)F)cc2)nn1Cc1nc(C(F)(F)F)nn1C [Compound 115]	0	20	20	80	90	50	0	20	20	40	0	80	30	90	90	60	30	90	100	100	Velvetleaf plant response rating [12, 24]: 60; Foxtail, Giant plant response rating [13, 23]: 80; Foxtail, Giant plant response rating [13, 24]: 30; Corn plant response rating [14, 23]: 40; Corn plant response rating [14, 24]: 20; Pigweed plant response rating [15, 23]: 100; Pigweed plant response rating [15, 24]: 90; Wheat plant response rating [16, 21]: 0; Wheat plant response rating [16, 22]: 20; Plant response rating, Barnyardgrass [17]: 0; Morningglory plant response rating [18, 21]: 0; Morningglory plant response rating [18, 22]: 40; Barnyardgrass plant response rating [19, 21]: 20; Barnyardgrass plant response rating [19, 22]: 80; Crabgrass, Large plant response rating [20, 21]: 90; Crabgrass, Large plant response rating [20, 22]: 100
CCc1cc(C(=O)NC2CC2)nn1Cc1cc(C(F)(F)F)nn1CC [Compound 118]	0	50	0	85	90	40	30	0	80	40	0	90	70	70	90	80	30	100	100	80	Velvetleaf plant response rating [12, 24]: 50; Foxtail, Giant plant response rating [13, 23]: 70; Foxtail, Giant plant response rating [13, 24]: 10; Corn plant response rating [14, 23]: 50; Corn plant response rating [14, 24]: 20; Pigweed plant response rating [15, 23]: 100; Pigweed plant response rating [15, 24]: 80; Wheat plant response rating [16, 21]: 0; Wheat plant response rating [16, 22]: 30; Plant response rating, Barnyardgrass [17]: 0; Morningglory plant response rating [18, 21]: 70; Morningglory plant response rating [18, 22]: 100; Barnyardgrass plant response rating [19, 21]: 40; Barnyardgrass plant response rating [19, 22]: 100; Crabgrass, Large plant response rating [20, 21]: 100; Crabgrass, Large plant response rating [20, 22]: 100
